Measured values: PubChem BioAssay AID248 (DTP/NCI, 2004)
Values joined by “and” are separate entries in the source; they are usually repeats but may differ in a detail not shown here. Equal entries are not always repeated. Inconclusive results and toxic doses are left out. No stated cut-off is given here; in the data, active means T/C of 150% or more; inactive means T/C below 125%.

Test system: L1210 leukemia ip in BDF1 mice, survival T/C
Experiment: NCI In Vivo Anticancer Drug Screen. Data for tumor model L1210 Leukemia (intraperitoneal) in B6D2F1 (BDF1) mice
Conditions: endpoint: mean survival time, higher = longer survival
Method in brief: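 In this screen, tumor-bearing mice given compound are compared to those given vehicle, and their survival values are reported as a treated-to-control quotient.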

[1] = dose: 100.0 mg/kg/injection, schedule: Q04DX003 (ip), vehicle: Klucel (hydroxypropylcellulose) (HPC)
[2] = dose: 200.0 mg/kg/injection, schedule: Q04DX003 (ip), vehicle: Klucel (hydroxypropylcellulose) (HPC)
[3] = dose: 400.0 mg/kg/injection, schedule: Q04DX003 (ip), vehicle: Klucel (hydroxypropylcellulose) (HPC)
[4] = dose: 100.0 mg/kg/injection, schedule: Q01DX009 (ip), vehicle: saline
[5] = dose: 100.0 mg/kg/injection, schedule: Q04DX003 (ip), vehicle: saline
[6] = dose: 200.0 mg/kg/injection, schedule: Q01DX009 (ip), vehicle: saline
[7] = dose: 200.0 mg/kg/injection, schedule: Q04DX003 (ip), vehicle: saline
[8] = dose: 400.0 mg/kg/injection, schedule: Q01DX009 (ip), vehicle: saline
[9] = dose: 400.0 mg/kg/injection, schedule: Q04DX003 (ip), vehicle: saline
[10] = dose: 25.0 mg/kg/injection, schedule: Q01DX009 (ip), vehicle: saline
[11] = dose: 100.0 mg/kg/injection, schedule: Q01DX001 (ip), vehicle: saline
[12] = dose: 200.0 mg/kg/injection, schedule: Q01DX001 (ip), vehicle: saline
[13] = dose: 400.0 mg/kg/injection, schedule: Q01DX001 (ip), vehicle: saline
[14] = dose: 100.0 mg/kg/injection, schedule: Q04DX003 (ip), vehicle: saline with Tween-80
[15] = dose: 200.0 mg/kg/injection, schedule: Q04DX003 (ip), vehicle: saline with Tween-80
[16] = dose: 400.0 mg/kg/injection, schedule: Q04DX003 (ip), vehicle: saline with Tween-80
[17] = dose: 25.0 mg/kg/injection, schedule: Q04DX003 (ip), vehicle: Klucel (hydroxypropylcellulose) (HPC)
[18] = dose: 50.0 mg/kg/injection, schedule: Q04DX003 (ip), vehicle: Klucel (hydroxypropylcellulose) (HPC)

Measured: T/C

CCOC(=O)C(I)CC (centres undefined)
inactive: dose: 25.0 mg/kg/injection, schedule: Q01DX009 (ip), vehicle: water 107 % of control | dose: 50.0 mg/kg/injection, schedule: Q01DX009 (ip), vehicle: water 93 % of control | dose: 100.0 mg/kg/injection, schedule: Q01DX009 (ip), vehicle: water 87 % of control

COc1cc(N(CCl)CCl)ccc1NC(=O)c1ccccc1
inactive: [1] 111 % of control | [2] 105 % of control | [3] 111 % of control

C[Si](C)(C)c1ccc(-c2ccccc2)cc1
inactive: dose: 25.6 mg/kg/injection, schedule: Q04DX002 (ip), vehicle: saline with Tween-80 90 % of control | dose: 64.0 mg/kg/injection, schedule: Q04DX002 (ip), vehicle: saline with Tween-80 90 % of control | dose: 160.0 mg/kg/injection, schedule: Q04DX002 (ip), vehicle: saline with Tween-80 97 % of control | dose: 400.0 mg/kg/injection, schedule: Q04DX002 (ip), vehicle: saline with Tween-80 101 % of control

CN(C)[C@@H]1C(=O)C(C(=O)NCNCCCC(=O)O)=C(O)[C@@]2(O)C(=O)C3=C(O)c4c(O)cccc4[C@@](C)(O)[C@H]3C[C@@H]12
inactive: [4] 103 % of control | [5] 105 % of control | [6] 102 % of control | [7] 96 % of control | [8] 94 % of control | [9] 96 % of control

C1=C(c2ccccc2)[P+](c2ccccc2)(c2ccccc2)C=C(c2ccccc2)[P+]1(c1ccccc1)c1ccccc1
inactive: dose: 12.5 mg/kg/injection, schedule: Q01DX009 (ip), vehicle: saline 108 % of control | dose: 12.5 mg/kg/injection, schedule: Q04DX003 (ip), vehicle: saline 106 % of control | [10] 109 % of control | dose: 25.0 mg/kg/injection, schedule: Q04DX003 (ip), vehicle: saline 109 % of control | dose: 50.0 mg/kg/injection, schedule: Q04DX003 (ip), vehicle: saline 102 % of control

O=C(/C=C(\S)c1ccccc1)c1ccccc1
inactive: dose: 50.0 mg/kg/injection, schedule: Q01DX001 (ip), vehicle: saline 101 % of control | [11] 104 % of control | [12] 98 % of control | [13] 101 % of control

Cc1ccc(-c2csc(NC(=O)CC(=O)N/N=C/c3ccc(N(CCCl)CCCl)cc3C)n2)cc1
inactive: dose: 100.0 mg/kg/injection, schedule: Q01DX001 (ip), vehicle: carboxymethylcellulose (CMC) 112 % of control | dose: 200.0 mg/kg/injection, schedule: Q01DX001 (ip), vehicle: carboxymethylcellulose (CMC) 88 % of control | dose: 400.0 mg/kg/injection, schedule: Q01DX001 (ip), vehicle: carboxymethylcellulose (CMC) 93 % of control

CCN(CC)CCNc1nc(-c2cc(C(F)(F)F)cc(C(F)(F)F)c2)nc(C(Cl)(Cl)Cl)n1
inactive: dose: 100.0 mg/kg/injection, schedule: Q04DX002 (ip), vehicle: saline 88 % of control | dose: 200.0 mg/kg/injection, schedule: Q04DX002 (ip), vehicle: saline 101 % of control | dose: 400.0 mg/kg/injection, schedule: Q04DX002 (ip), vehicle: saline 88 % of control

Clc1ccnc(Cl)n1
inactive: [4] 97 % of control | [5] 96 % of control | [6] 101 % of control | [7] 96 % of control | [8] 97 % of control | [9] 97 % of control

OC(c1ccccc1)(c1ccccc1)c1ccncc1
inactive: dose: 50.0 mg/kg/injection, schedule: Q01DX009 (ip), vehicle: saline with Tween-80 96 % of control

Fc1cccc2ccc(Br)cc12
inactive: [1] 100 % of control | [2] 100 % of control | [3] 106 % of control

CN(N=O)P(=O)(Nc1ccccc1)Nc1ccccc1
inactive: [10] 111 % of control | dose: 50.0 mg/kg/injection, schedule: Q01DX009 (ip), vehicle: saline 117 % of control | dose: 66.0 mg/kg/injection, schedule: Q01DX009 (ip), vehicle: other 103 % of control | dose: 100.0 mg/kg/injection, schedule: Q01DX009 (ip), vehicle: other 100 % of control | dose: 100.0 mg/kg/injection, schedule: Q04DX003 (ip), vehicle: saline sonified 122 % of control | dose: 150.0 mg/kg/injection, schedule: Q01DX009 (ip), vehicle: other 88 % of control

O=c1cc(COc2ccccc2Cl)[nH]c(=O)[nH]1
inactive: [14] 95 % of control | [15] 95 % of control | [16] 95 % of control

O=[N+]([O-])c1cc2cnn(CCl)c2cc1[N+](=O)[O-]
inactive: [11] 103 % of control | [12] 111 % of control | [13] 109 % of control

CC(=O)O[C@H]1[C@H]2O[C@]23[C@@H]2CC[C@@H]4C[C@@H](O)CC[C@]4(C)[C@H]2CC[C@]3(C)[C@H]1c1ccc(=O)oc1
inactive: dose: 3.75 mg/kg/injection, schedule: Q01DX009 (ip), vehicle: Klucel (hydroxypropylcellulose) (HPC) 110 % of control | dose: 5.0 mg/kg/injection, schedule: Q01DX001 (ip), vehicle: other 103 % of control | dose: 7.5 mg/kg/injection, schedule: Q01DX009 (ip), vehicle: Klucel (hydroxypropylcellulose) (HPC) 98 % of control | dose: 10.0 mg/kg/injection, schedule: Q01DX001 (ip), vehicle: other 103 % of control | dose: 15.0 mg/kg/injection, schedule: Q04DX003 (ip), vehicle: Klucel (hydroxypropylcellulose) (HPC) 98 % of control | dose: 20.0 mg/kg/injection, schedule: Q01DX001 (ip), vehicle: other 97 % of control

COc1ccc(Cc2c3cc(OC)c(OC)cc3cc[n+]2Cc2ccc(N(CCCl)CCCl)cc2)cc1OC
inactive: dose: 75.0 mg/kg/injection, schedule: Q01DX001 (ip), vehicle: carboxymethylcellulose (CMC) 100 % of control | dose: 150.0 mg/kg/injection, schedule: Q01DX001 (ip), vehicle: carboxymethylcellulose (CMC) 94 % of control

Nc1ccccc1SCc1ccccc1
inactive: [14] 101 % of control | [15] 96 % of control | [16] 98 % of control

OC(CN1CCOCC1)c1ccccc1 (centres undefined)
inactive: dose: 100.0 mg/kg/injection, schedule: Q01DX009 (ip), vehicle: Klucel (hydroxypropylcellulose) (HPC) 94 % of control | [1] 98 % of control | dose: 200.0 mg/kg/injection, schedule: Q01DX009 (ip), vehicle: Klucel (hydroxypropylcellulose) (HPC) 95 % of control | [2] 102 % of control

N#Cc1ccc(S(=O)(=O)Cl)cc1
inactive: [17] 95 % of control | [18] 100 % of control | [1] 93 % of control and 91 % of control

CC(=O)c1c(C)cc2cc(C)cc(O)c2c1O
inactive: [1] 97 % of control | [2] 101 % of control | [3] 101 % of control

c1ccc(CCNc2ccnc3ccccc23)cc1
inactive: dose: 12.5 mg/kg/injection, schedule: Q01DX009 (ip), vehicle: Klucel (hydroxypropylcellulose) (HPC) 103 % of control | dose: 12.5 mg/kg/injection, schedule: Q04DX003 (ip), vehicle: Klucel (hydroxypropylcellulose) (HPC) 104 % of control | dose: 25.0 mg/kg/injection, schedule: Q01DX009 (ip), vehicle: Klucel (hydroxypropylcellulose) (HPC) 101 % of control | [17] 97 % of control | [18] 95 % of control
